Test results: US11466044B2 (WAYNE STATE UNIVERSITY, priority 2017, dated 2022)
Converted amounts (≈) assume the structure as drawn. Like-named read-outs stand apart in the source and are kept apart here.

Assays:
[1] = tested on: E coli wild type; experiment: MIC by broth microdilution, wild type E coli; format: cell-based; conditions: for MIC AG212 E. coli: strain AG212 E. coli (ATCC25922); for MIC: Escherichia coli
[2] = tested on: P aeruginosa; experiment: MIC by broth microdilution, P aeruginosa isolates; format: cell-based, Pseudomonas aeruginosa; conditions: strain AG220 Pseudomonas aeruginosa ATCC27853
[3] = tested on: E coli carrying specific resistance determinants; experiment: MIC by broth microdilution, E coli carrying specific resistance determinants; format: cell-based; conditions: for MIC: Escherichia coli
[4] = tested on: Klebsiella pneumonia AG215; experiment: MIC by broth microdilution, Klebsiella pneumonia; format: cell-based; conditions: strain AG215 Klebsiella pneumonia
[5] = tested on: Acinetobacter baumannii pittii AG225; experiment: MIC by broth microdilution, Acinetobacter baumannii; format: cell-based; conditions: strain AG225 Acinetobacter baumannii pittii
[6] = tested on: Enterobacter cloacae AG290; experiment: MIC by broth microdilution, Enterobacter cloacae; format: cell-based; conditions: strain AG290 Enterobacter cloacae
[7] = tested on: N. gonorrhoeae; experiment: Disk diffusion, N. gonorrhoeae; format: cell-based
[8] = tested on: MRSA; experiment: MIC by broth microdilution, MRSA isolates; format: cell-based; conditions: Table 1 (Example 2)
[9] = tested on: M. smegmatis SZ380; experiment: MIC by broth microdilution, M. smegmatis

CCC[C@@H]1C(CO)O[C@H](O[C@@H]2C(N)C[C@@H](NC(=O)[C@@H](O)CCN)C(O)[C@H]2O[C@@H]2O[C@H](CO)[C@H](O[C@H]3C[C@@H](CN)[C@@H](O)C(O)C3N)C2O)[C@@H](N)C1O (stereo partly drawn) [Compound 187]
MIC AG160 E. coli WT ([1]; clinical isolate AG160 WT, Table 2 (Example 4)): 2 µg/mL (≈ 2.7 µM)
MIC pH430 E. coli WT ([1]; engineered strain pH430 WT, Table 2 (Example 4)): 0.5-1 μg/ml
MIC AG212 E. coli [1]: 2 µg/mL (≈ 2.7 µM)
MIC AG220 P. aerugin [2]: 2 to 4 µg/mL
MIC AG163 E. coli APH(3′)-I ([3]; clinical isolate AG163 APH(3′)-I, Table 2 (Example 4)): 2 µg/mL (≈ 2.7 µM)
MIC AG166 E. coli APH(3′)-II ([3]; clinical isolate AG166 APH(3′)-II, Table 2 (Example 4)): 2 µg/mL (≈ 2.7 µM)
MIC AG037 E. coli APH(3′)-III ([3]; engineered strain AG037 APH(3′)-III, Table 2 (Example 4)): 8 µg/mL (≈ 10.8 µM)
MIC pH421 E. coli APH(3′)-I ([3]; engineered strain pH421 APH(3′)-I, Table 2 (Example 4)): 4-8 μg/ml
MIC pH422 E. coli APH(3′)-II ([3]; engineered strain pH422 APH(3′)-II, Table 2 (Example 4)): 0.5-1 μg/ml
MIC pH423 E. coli APH(3′)-VI ([3]; engineered strain pH423 APH(3′)-VI, Table 2 (Example 4)): 1 μg/ml
MIC AG215 K. pneumon [4]: 0.5 µg/mL (≈ 0.675 µM)
MIC AG225 A. baumannii [5]: 2 µg/mL (≈ 2.7 µM)
MIC AG290 E. cloacae [6]: 0.5 to 1 µg/mL
Disk diffusion 25 nmol N. gonorrhoeae [7]: 11 mm

CC(O)C1OC(OC2C(N)CC(N)C(O)C2OC2OC(CO)C(OC3OC(CN)C(O)C(O)C3N)C2O)C(N)C(O)C1O (stereo not drawn) [Compound 156]
MIC50 MRSA AG38 ([8]; strain AG38): 4 to 8 µg/mL
MIC50 MRSA AG39 ([8]; strain AG39): >128 µg/mL
MIC50 MRSA AG42 ([8]; strain AG42): >128 µg/mL
MIC50 MRSA AG44 ([8]; strain AG44): 2 to 4 µg/mL
MIC50 E coli BM13 (AG06) wt ([1]; BM13 (AG06) wt, Table 2A (Example 2)): 1 µg/mL (≈ 1.59 µM)
MIC50 E coli pH430 WT ([1]; pH430 WT, Table 2B (Example 2)): 1 μg/ml
MIC50 E coli AG01 ([1]; strain AG01, Table 1 (Example 2)): 4 µg/mL (≈ 6.35 µM)
MIC50 E coli AG03 ([1]; strain AG03, Table 1 (Example 2)): 4 to 8 µg/mL
MIC50 E coli AG55 ([1]; strain AG55, Table 1 (Example 2)): 4 µg/mL (≈ 6.35 µM)
MIC AG212 E. coli [1]: 2 µg/mL (≈ 3.18 µM)
MIC AG220 P. aerugin [2]: >32 µg/mL
MIC50 E coli AG036 ANT(4′,4″) ([3]; AG036 ANT(4′,4″), Table 2B (Example 2)): 32 to 64 µg/mL
MIC50 E coli AG037 APH(3′)-III ([3]; AG037 APH(3′)-III, Table 2B (Example 2)): >32 µg/mL
MIC50 E coli AG103 armA ([3]; AG103 armA, Table 2B (Example 2)): 1 µg/mL (≈ 1.59 µM)
MIC50 E coli pH414 AAC(6′)-I ([3]; pH414 AAC(6′)-I, Table 2B (Example 2)): 1 μg/ml
MIC50 E coli pH415 AAC(6′)-II ([3]; pH415 AAC(6′)-II, Table 2B (Example 2)): 1 μg/ml
MIC50 E coli pH421 APH(3′)-I ([3]; pH421 APH(3′)-I, Table 2B (Example 2)): >32 μg/ml
MIC50 E coli pH422 APH(3′)-II ([3]; pH422 APH(3′)-II, Table 2B (Example 2)): >32 μg/ml
MIC50 E coli pH423 APH(3)-VI ([3]; pH423 APH(3)-VI, Table 2B (Example 2)): >32 μg/ml
MIC50 E coli pH432 ANT(4′) ([3]; pH432 ANT(4′), Table 2B (Example 2)): 1 μg/ml
MIC AG215 K. pneumon [4]: 1 µg/mL (≈ 1.59 µM)
MIC AG225 A. baumannii [5]: 2 µg/mL (≈ 3.18 µM)
MIC AG290 E. cloacae [6]: 1 µg/mL (≈ 1.59 µM)
Disk diffusion 25 nmol N. gonorrhoeae [7]: 10 mm
MIC SZ380 M. smegmatis ([9]; strain SZ380 Mycobacterium smegmatis): 0.5 µg/mL (≈ 0.794 µM)

CCC[C@@H]1C(CO)O[C@H](O[C@@H]2C(N)C[C@@H](N)C(O)[C@H]2O[C@@H]2O[C@H](CO)[C@H](O[C@H]3OC(CN)[C@@H](O)C(O)C3N)C2O)[C@@H](N)C1O (stereo partly drawn) [Compound 079]
MIC ([1]; ATCC25922, strain AG212 E. coli (ATCC25922), read-out: MIC AG212 E. coli): 1 µg/mL (≈ 1.56 µM)
MIC ([1]; clinical isolate AG160 WT, Table 2 (Example 4), read-out: MIC AG160 E. coli WT): 1 µg/mL (≈ 1.56 µM)
MIC ([1]; engineered strain pH430 WT, Table 2 (Example 4), read-out: MIC pH430 E. coli WT): 0.5 µg/mL (≈ 0.779 µM)
MIC ([2]; read-out: MIC AG220 P. aerugin): 4 µg/mL (≈ 6.23 µM)
MIC ([3]; read-out: MIC AG037 E. coli APH(3′)-III): > 64 µg/mL
MIC ([3]; read-out: MIC AG163 E. coli APH(3′)-I): > 64 µg/mL
MIC ([3]; read-out: MIC AG166 E. coli APH(3′)-II): 1 to 2 µg/mL (≈ 1.56 to 3.12 µM)
MIC ([3]; read-out: MIC pH421 E. coli APH(3′)-I): > 32 µg/mL
MIC ([3]; read-out: MIC pH422 E. coli APH(3′)-II): 4 µg/mL (≈ 6.23 µM)
MIC ([3]; read-out: MIC pH423 E. coli APH(3′)-VI): 1 µg/mL (≈ 1.56 µM)
MIC ([4]; Klebsiella pneumoniae, read-out: MIC AG215 K. pneumon): 0.5 µg/mL (≈ 0.779 µM)
MIC [5]: 1 to 2 µg/mL (≈ 1.56 to 3.12 µM)
MIC ([6]; read-out: MIC AG290 E. cloacae): 0.5 µg/mL (≈ 0.779 µM)
zone of inhibition at 25 nmol/disc ([7]; Neisseria gonorrhoeae): 16 mm
MIC ([9]; Mycolicibacterium smegmatis, SZ380, read-out: MIC SZ380 M. smegmatis, strain SZ380 Mycobacterium smegmatis): 0.5 µg/mL (≈ 0.779 µM)
